Measurements taken from patent publication US8703790B2, “Bis [O-(14-benzoylaconine-8-yl)] esters” (priority 2008, dated 2014).

How the values were obtained:
MCF-7 (breast cancer) = assay: In vitro cytotoxicity test (MTT) against human tumour cell line MCF-7; format: cell-based; conditions: MCF-7, 24 h contact, 48 h re-growth
Description: (§1) Human tumour cell lines A549 (lung cancer), HCT-15 (colon cancer) and MCF-7 (breast cancer) have been obtained from the Developmental Therapeutics Program of the National Cancer Institute (Rockville, Md., USA). Cells were routinely grown with RPMI 1640 medium supplemented with 10% foetal calf serum, both obtained from Biochrom AG (Berlin, Germany). They were grown on Petri dishes (Nunc, Denmark) at 37° C. in a humidified atmosphere containing 5% CO2. Cells were replicated every 4 days and the medium changed once in-between.
(§2) Cytotoxicity has been evaluated on exponentially growing cells grown for 24 h in presence of the compounds to be tested. Briefly, 4000 cells were seeded in 96-well plates with 200 μL of complete medium; 24 hours later the medium was supplemented with a series of different concentrations of compounds and the contact maintained for 24 h. Compounds were dissolved in pure water and sterilised using polycarbonate membrane filters of 0.22 μm (Millipore, Molsheim, France). The cells were then allowed to re-grow for 48 hours; viable and metabolically active cells were quantitatively estimated by coloration with the MTT dye (1-(4,5-dimethylthyazol-2-yl)-3,5-diphenylformazan), Sigma-Aldrich Chimie, Saint-Quentin-Fallavier, France). The amount of substance allowing a 50% decrease in cell numbers is indicative of the cytotoxicity and represents the IC50 of compound.

A549 = assay: Cell cycle arrest, propidium iodide flow cytometry, A549; format: cell-based, human
Description: 10^6 Cells of A549, HCT-15 and MCF-7 cell lines have been seeded in Petri dishes with RPMI-1640 medium. 24 h later, SDD has been dissolved in water at a concentration of 20 μM and was directly added to the culture medium. Contact was maintained for 72 h. Then, cells have been detached by trypsinization, collected and rinsed by PBS and counted on hemocytometer. Cells were centrifuged for 5 min at 1500 rpm, then resuspended in a defined volume of PBS to obtain 2.5×10^6 cell/mL. 100 μL of cell suspension was digested to nuclei by trypsin for 10 min. Then, a solution containing trypsin inhibitor and RNAse was added to cell suspension and left for 10 min. Finally, cells were stained by propidium iodide and were analysed by flow-cytometry apparatus. Distribution of cells among the different phases of the cycle was determined by the procedure disclosed in: A detergent-trypsin method for preparation of nuclei for flow cytometric DNA analysis. Vindelov, L.; Christensen, I.; Nissen, N.; Cytometry (1983), 3, 323-327.
• G0G1: cell in the phase of GOG1 • G2M: cells in the phase of G2M • S: cells in the phase of DNA synthesis • Sub G1: apoptotic cells • SUP G2M: diploidic cells

female Swiss mice = assay: Acute systemic toxicity, main test, intravenous; format: in vivo, mouse
Description: The SDD was administered by intravenous route at the dose of 50 mg/kg body weight to a group of 5 female Swiss mice. The experimental protocol was established from the International standard NF EN ISO 10993-11 concerning biological evaluation of medical devices: “Tests for systemic toxicity”.

HCT-15 (colon cancer) = assay: In vitro cytotoxicity test (MTT) against human tumour cell line HCT-15; format: cell-based; conditions: HCT-15, 24 h contact, 48 h re-growth
Description: as §1, §2

A549 (lung cancer) = assay: In vitro cytotoxicity test (MTT) against human tumour cell line A549; format: cell-based; conditions: A549, 24 h contact, 48 h re-growth
Description: as §1, §2

[1] = A549, SDD 20 μM, 72 h, percentage of total cell population
[2] = 50 mg/kg iv, 1 hour after administration

CCN1C[C@]2(COC)[C@H](O)C[C@H](OC)[C@]34C1[C@H]([C@H](OC)[C@H]23)[C@]1(OC(=O)CCCCCCC(=O)O[C@]23[C@H]5[C@@H](OC(=O)c6ccccc6)[C@](O)(C[C@H]5[C@@]56C7[C@@H]2[C@H](OC)[C@@H]5[C@](COC)(CN7CC)[C@H](O)C[C@@H]6OC)[C@@H](OC)[C@@H]3O)[C@H]2[C@@H](OC(=O)c3ccccc3)[C@](O)(C[C@H]24)[C@@H](OC)[C@@H]1O [SDD, bis[O-(14-benzoylaconine-8-yl)]-suberate]
IC50 (MCF-7 (breast cancer)): 3.7 µM | accumulation of cells in the G2M and S phases (A549; A549, 20 μM): significant accumulation | increase of number of cells arrested at S phase as compared to control (A549; A549, SDD 20 μM): more than 100% | increase of number of cells in the G2M phase as compared to control (A549; A549, SDD 20 μM): 85% | ALL % (A549; [1]): 100% | G0G1 % (A549; [1]): 53.04% | G2M % (A549; [1]): 16.42% | S % (A549; [1]): 25.49% | SUP G2M % (diploidic cells) (A549; [1]): 2.09% | SubG1 % (apoptotic cells) (A549; [1]): 3.34% | cell distribution in the cell cycle (A549; A549, SDD concentration close to IC50): altered | Percentage of survival cells, G0G1 % (A549; A549, SDD, survival cells): 55.86% | Percentage of survival cells, G2M % (A549; A549, SDD, survival cells): 17.29% | Percentage of survival cells, S % (A549; A549, SDD, survival cells): 26.84% | mortality (female Swiss mice; 50 mg/kg body weight iv, 5 female Swiss mice): No mortality | decrease of the righting reflex (animals affected) (female Swiss mice; [2]): 2/5 | decrease of the spontaneous activity (animals affected) (female Swiss mice; [2]): 5/5 | eyes partly closed (animals affected) (female Swiss mice; [2]): 2/5 | macroscopical examination: necrosis at the level of the tail (animals affected) (female Swiss mice; 50 mg/kg iv, end of the study): 3/5 | local finding at the tails (female Swiss mice; 50 mg/kg iv, first day to fourteenth day): oedema at the level of the tails | body weight evolution (female Swiss mice; 50 mg/kg iv, throughout the study): remained normal | LD50 (female Swiss mice; mouse, intravenous route): above 50 mg/kg of body weight | IC50 (HCT-15 (colon cancer)): 3.7 µM | IC50 (A549 (lung cancer)): 18.7 µM
